Starred links: 1 amine or outer side, 2 acyl side, 3 side chain; linkers in the order of their positions; H or OH if unused. Positions of bridges follow the written chain, without caps; N, C: chain ends. Non-standard residues stand in square brackets, D forms with d. Residues, ends and D or L forms follow the SMILES beside them. *: point of attachment. hPhe(3-Cl-4-CF3) = N[C@@H](CCc1ccc(C(F)(F)F)c(Cl)c1)C(=O)O; X38 = CN([C@@H](Cc1cccc(OC(F)(F)F)c1)C(=O)[*:2])[*:1]; NMeAla(4-thiazolyl) = CN[C@@H](Cc1cscn1)C(=O)O; NMePhe(2-CN) = CN[C@@H](Cc1ccccc1C#N)C(=O)O; NMedβ3hAla = C[C@H](CC(=O)[*:2])N(C)[*:1]; Oic = O=C(O)[C@@H]1C[C@@H]2CCCC[C@@H]2N1; hNle(7,7-F2) = N[C@@H](CCCCC(F)F)C(=O)O; NMeGly(cPent) = CN[C@H](C(=O)O)C1CCCC1; NMeCha = CN[C@@H](CC1CCCCC1)C(=O)O; Azetidine(3,3-F2) = FC1(F)CN(*)C1; NMeChg = CN[C@H](C(=O)O)C1CCCCC1; NMeD = CN[C@@H](CC(=O)O)C(=O)O; NMeL = CN[C@@H](CC(C)C)C(=O)O; NMeV = CN[C@H](C(=O)O)C(C)C; Trifluoroethyl = FC(F)(F)C*; d(β3hA) = C[C@@H](N)CC(=O)O; dNMeS = CN[C@H](CO)C(=O)O; NMeA = CN[C@@H](C)C(=O)O; Piperidide = C1CCN(*)CC1; Ac5c = NC1(C(=O)O)CCCC1; Isopentyl = CC(C)CC*; NPrGly = CCCNCC(=O)O; Sar = CNCC(=O)O; Propyl = CCC*

The target of one test is T1, Kras and SOS1 (biotin-tagged human Kras loaded with GDP, His-tagged human SOS1) (Homo sapiens, UniProt P01116, G12D).
T1 construct: made in house; host or cells: E. coli (stated for Kras only)
T1 sequence (P01116 1-188 isoform P01116-2 G12D): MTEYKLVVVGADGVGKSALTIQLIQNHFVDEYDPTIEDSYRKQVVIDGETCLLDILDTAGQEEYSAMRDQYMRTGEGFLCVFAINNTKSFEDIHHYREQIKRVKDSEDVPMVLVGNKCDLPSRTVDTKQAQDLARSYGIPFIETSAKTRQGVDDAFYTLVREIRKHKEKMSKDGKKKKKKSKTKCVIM
The experiment in a line: Protein-protein interaction inhibition between Kras and SOS1 (KrasGl2D-SOS PPI) using AlphaScreen. It is filed as binding.
Details: not given
The essentials: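 AlphaScreen format: Ni donor beads capture His-SOS1, streptavidin acceptor beads capture biotinylated Kras (E. coli-expressed, GDP-loaded post-purification). Excite 680 nm, read 520-620 nm.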
(Alpha assays give light when donor and acceptor beads are brought close together.)
Compound `CC[C@H](C)[C@@H]1NC(=O)[C@H](CC(C)C)N(C)C(=O)C[C@@H](C(=O)N2CCCCC2)N(C)C(=O)[C@H](C2CCCCC2)N(C)C(=O)C2(CCCC2)NC(=O)[C@@H]2C[C@@H]3CCCC[C@@H]3N2C(=O)[C@H](CCc2ccc(C(F)(F)F)c(Cl)c2)NC(=O)CN(C)C(=O)[C@H](CC2CCCCC2)N(C)C(=O)CN(C)C(=O)CN(C)C1=O` [Compound 297] ([NMeL]I[Sar][Sar][NMeCha][Sar][hPhe(3-Cl-4-CF3)][Oic][Ac5c][NMeChg][NMeD]-Piperidide; lactam N-11) had an IC50 of 49 nM.

Staying with this test, now noted: AlphaScreen; biotin-tagged human Kras loaded with GDP, His-tagged human SOS1; read-out: KRAS G12D-SOS PPI IC50.
`CC[C@H](C)[C@@H]1NC(=O)[C@H](CC(C)C)N(C)C(=O)C[C@@H](C)NC(=O)[C@H](C(C)C)N(C)C(=O)C2(CCCC2)NC(=O)[C@@H]2CCCN2C(=O)[C@H](CCc2ccc(C(F)(F)F)c(Cl)c2)NC(=O)CN(C)C(=O)[C@H](Cc2cccc(OC(F)(F)F)c2)N(C)C(=O)CN(C)C(=O)CN(C)C1=O` [Compound 1573] (cyclo([Ac5c][NMeV][d(β3hA)][NMeL]I[Sar][Sar][X38][Sar][hPhe(3-Cl-4-CF3)]P)): the IC50 amounted to 57 nM. As to `CC[C@H](C)[C@@H]1NC(=O)[C@H](CC(C)C)N(C)C(=O)C[C@@H](C(=O)N2CCCCC2)N(C)C(=O)[C@H](C2CCCCC2)N(C)C(=O)C2(CCCC2)NC(=O)[C@H](Cc2cscn2)N(C)C(=O)[C@H](CCc2ccc(C(F)(F)F)c(Cl)c2)NC(=O)CN(C)C(=O)[C@H](CC2CCCCC2)N(C)C(=O)CN(C)C(=O)CN(C)C1=O` [Compound 500] ([NMeL]I[Sar][Sar][NMeCha][Sar][hPhe(3-Cl-4-CF3)][NMeAla(4-thiazolyl)][Ac5c][NMeChg][NMeD]-Piperidide; lactam N-11), the IC50 came to 4.8 nM. Regarding `CCCN1CC(=O)N(C)CC(=O)N(C)[C@@H](CC2CCCCC2)C(=O)N(C)CC(=O)N[C@@H](CCc2ccc(C(F)(F)F)c(Cl)c2)C(=O)N2CCC[C@H]2C(=O)NC2(CCCC2)C(=O)N(C)[C@@H](C(C)C)C(=O)N[C@H](C)CC(=O)N(C)[C@@H](CC(C)C)C(=O)N[C@@H]([C@@H](C)CC)C1=O` [Compound 116] (cyclo([Ac5c][NMeV][d(β3hA)][NMeL]I[NPrGly][Sar][NMeCha][Sar][hPhe(3-Cl-4-CF3)]P)), the IC50 worked out at 140 nM. As to `CC[C@H](C)[C@@H]1NC(=O)[C@H](CC(C)C)N(C)C(=O)C[C@@H](C)N(C)C(=O)[C@H](C(C)C)N(C)C(=O)C2(CCCC2)NC(=O)[C@@H]2CCCN2C(=O)[C@H](CCc2ccc(C(F)(F)F)c(Cl)c2)NC(=O)CN(C)C(=O)[C@H](Cc2ccccc2C#N)N(C)C(=O)CN(C)C(=O)CN(C)C1=O` [Compound 357] (cyclo([Ac5c][NMeV][NMedβ3hAla][NMeL]I[Sar][Sar][NMePhe(2-CN)][Sar][hPhe(3-Cl-4-CF3)]P)), the IC50 was 22 nM. With `CC(C)C[C@H]1C(=O)N[C@@H](CCCCC(F)F)C(=O)N(C)CC(=O)N(C)CC(=O)N(C)[C@@H](CC2CCCCC2)C(=O)N(C)CC(=O)N[C@@H](CCc2ccc(C(F)(F)F)c(Cl)c2)C(=O)N2CCC[C@H]2C(=O)NC2(CCCC2)C(=O)N(C)[C@@H](C2CCCCC2)C(=O)N(C)[C@H](C(=O)N2CCCCC2)CC(=O)N1C` [Compound 92] ([NMeL][hNle(7,7-F2)][Sar][Sar][NMeCha][Sar][hPhe(3-Cl-4-CF3)]P[Ac5c][NMeChg][NMeD]-Piperidide; lactam N-11), the IC50 is 5.5 nM. For the compound `CC[C@H](C)[C@@H]1NC(=O)[C@H](CC(C)C)N(C)C(=O)C[C@@H](C(=O)N2CCCCC2)N(C)C(=O)[C@H](C2CCCC2)N(C)C(=O)C2(CCCC2)NC(=O)[C@@H](COCCC(C)C)N(C)C(=O)[C@H](CCc2ccc(C(F)(F)F)c(Cl)c2)NC(=O)CN(C)C(=O)[C@H](CC2CCCCC2)N(C)C(=O)CN(C)C(=O)CN(C)C1=O` [Compound 1440] ([NMeL]I[Sar][Sar][NMeCha][Sar][hPhe(3-Cl-4-CF3)][dNMeS](Isopentyl)[Ac5c][NMeGly(cPent)][NMeD]-Piperidide; lactam N-11), the IC50 was 16 nM. For `CCCOC[C@@H]1NC(=O)[C@H](CC(=O)N2CC(F)(F)C2)N(C)C(=O)[C@H](CCc2ccc(C(F)(F)F)c(Cl)c2)NC(=O)CN(C)C(=O)[C@H](CC2CCCCC2)N(C)C(=O)CN(C)C(=O)CN(C)C(=O)[C@H]([C@@H](C)CC)NC(=O)[C@H](C)N(C)C(=O)C[C@@H](C(=O)N2CCCCC2)N(C)C(=O)[C@H](C(C)C)N(C)C1=O` [Compound 129] ([NMeA]I[Sar][Sar][NMeCha][Sar][hPhe(3-Cl-4-CF3)][NMeD](Azetidine(3,3-F2))S(Propyl)[NMeV][NMeD]-Piperidide; lactam N-11), the concentration for half-maximal inhibition (IC50) was found to be 11 nM.

Regarding `CC(C)C[C@H]1C(=O)N[C@@H](COCC(F)(F)F)C(=O)N(C)CC(=O)N(C)CC(=O)N(C)[C@@H](CC2CCCCC2)C(=O)N(C)CC(=O)N[C@@H](CCc2ccc(C(F)(F)F)c(Cl)c2)C(=O)N2CCC[C@H]2C(=O)NC2(CCCC2)C(=O)N(C)[C@@H](C2CCCCC2)C(=O)N(C)[C@H](C(=O)N2CCCCC2)CC(=O)N1C` [Compound 894] ([NMeL]S(Trifluoroethyl)[Sar][Sar][NMeCha][Sar][hPhe(3-Cl-4-CF3)]P[Ac5c][NMeChg][NMeD]-Piperidide; lactam N-11), the half-maximal inhibitory concentration (IC50) worked out at 11 nM.

The term IC50 denotes the concentration that inhibits the measured activity by half.

The record behind these values is patent US12371454B2, “Cyclic peptide compound having Kras inhibitory action” (priority 2019, dated 2025).
